The values below come from paper PMC4457633 (Bioorganic & medicinal chemistry letters, 2015).

The Ki is a measure of affinity in units of concentration, obtained from inhibition or displacement.

Data set [1] has as its target T1, VMAT-2 (Rattus norvegicus, UniProt Q01827). The experiment in a line: [3H]DA uptake at VMAT-2, isolated rat synaptic vesicle preparations. Type of data set: biochemical. The note with it: for fold more potent inhibiting [3H]DA uptake at VMAT-2 compared to 16: compared to N-2,3-dihydroxypropyl derivative 16.
For data set [2] the following is noted: qualitative; ref [15]; cited from earlier work.
Data set [3] has as its target T1, VMAT-2. The note with it: read-out: [3H]DTBZ Binding Ki; mean ± SEM; rat brain synaptic vesicles; ref [15]; cited from earlier work.
Data set [4] concerns the target T1, VMAT-2. The note with it: read-out: [3H]DA uptake Ki; mean ± SEM; rat synaptic vesicles; ref [15]; cited from earlier work.

Read-outs that look alike come from different tables or passages of the source.

T1 sequence (Q01827 whole entry): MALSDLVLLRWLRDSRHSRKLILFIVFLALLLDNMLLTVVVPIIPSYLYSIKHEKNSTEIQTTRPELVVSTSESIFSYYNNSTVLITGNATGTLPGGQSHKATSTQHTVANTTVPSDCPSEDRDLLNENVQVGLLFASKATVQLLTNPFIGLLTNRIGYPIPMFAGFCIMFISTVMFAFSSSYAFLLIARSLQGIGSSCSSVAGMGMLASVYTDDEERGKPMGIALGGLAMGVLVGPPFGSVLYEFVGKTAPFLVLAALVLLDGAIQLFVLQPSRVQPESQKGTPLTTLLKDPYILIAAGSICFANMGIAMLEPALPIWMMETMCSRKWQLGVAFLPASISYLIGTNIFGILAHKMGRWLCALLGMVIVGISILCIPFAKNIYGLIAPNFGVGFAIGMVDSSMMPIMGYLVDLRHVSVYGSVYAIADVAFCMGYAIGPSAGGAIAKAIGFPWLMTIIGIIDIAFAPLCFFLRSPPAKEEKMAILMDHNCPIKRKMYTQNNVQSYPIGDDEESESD

In the case of `c1ccc2nc(CC[C@H]3CCC[C@@H](CCc4ccc5ccccc5n4)N3)ccc2c1` [Compound 13], the “fold more potent inhibiting [3H]DA uptake at VMAT-2 compared to 16” value (from here on “fold more potent inhibiting”) on VMAT-2 [1] was “about 6 fold”. As to `c1ccc2c(CC[C@H]3CCC[C@@H](CCc4ccnc5ccccc45)N3)ccnc2c1` [Compound 14], the “fold more potent inhibiting” value at VMAT-2 [1] is “about 6 fold”.

With `c1cnc2ccc(CC[C@H]3CCC[C@@H](CCc4ccc5ncccc5c4)N3)cc2c1` [Compound 15], the “fold more potent inhibiting” value at VMAT-2 [1] is “about 6 fold”. On to `OC[C@H](O)CN1[C@@H](CCc2ccc3ccccc3n2)CCC[C@H]1CCc1ccc2ccccc2n1` [Compound 16], for which, on VMAT-2 [1] (compared to GZ-793A (Ki = […] nM)), the “fold lower inhibitory potency than GZ-793A in vesicular [3H]DA uptake assay” value is 8 fold.

For `CN1[C@@H](CCc2ccccc2)CCC[C@H]1CCc1ccccc1` [Lobelane], the water solubility entry in data set [2] is “less than optimal water-solubility”. `c1ccc(CC[C@H]2CCC[C@@H](CCc3ccccc3)N2)cc1` [Norlobelane]: the figures for the Ki at VMAT-2 [3] and at VMAT-2 [4] were 2310 ± 190 nM and 43 ± 2 nM, respectively. The water solubility entry in data set [2] is given as “less than optimal water-solubility”. Consider `CN1[C@@H](CCc2ccnc3ccccc23)CCC[C@H]1CCc1ccnc2ccccc12` [Quinlobelane], for which the water solubility entry in data set [2] was “improved water solubility over lobelane and norlobelane”.
